Assay type in all cases: cell-based
The target in one test is T1, M1 muscarinic receptor (Homo sapiens, UniProt P11229).
T1 construct: expressed in transfected cells; host or cells: CHO (M1-CHO)
T1 sequence (P11229 1-460): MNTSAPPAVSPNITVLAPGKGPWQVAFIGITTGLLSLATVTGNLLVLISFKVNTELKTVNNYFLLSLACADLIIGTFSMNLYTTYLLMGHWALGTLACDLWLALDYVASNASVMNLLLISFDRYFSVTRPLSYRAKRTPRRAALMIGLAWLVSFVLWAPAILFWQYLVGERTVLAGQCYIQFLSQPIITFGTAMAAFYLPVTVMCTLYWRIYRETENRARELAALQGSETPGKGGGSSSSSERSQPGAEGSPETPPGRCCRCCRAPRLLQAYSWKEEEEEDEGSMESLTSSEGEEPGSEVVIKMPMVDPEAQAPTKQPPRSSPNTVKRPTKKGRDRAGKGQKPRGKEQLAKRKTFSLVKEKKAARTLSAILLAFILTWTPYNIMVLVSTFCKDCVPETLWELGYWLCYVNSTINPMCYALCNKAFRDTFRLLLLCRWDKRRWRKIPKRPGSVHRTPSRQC
The test is described as follows: Functional mobilization of intracellular calcium (FLIPR), M1-CHO cells. The conditions noted are these: for Emax: 100% efficacy = maximum response obtained with the Carbachol control; for M1 Activity: M1-CHO cells, calcium mobilization (FLIPR). In short, it runs like this:
(§1)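 FLIPR fluorescence (ex 488, em 540 nm) recorded 60 sec after compound addition to dye-loaded CHO cells. Agonist mode: compound alone. Antagonist mode: 15 min compound pre-incubation, then carbachol at EC80, or co-application. Efficacy expressed as % of maximal carbachol response.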
(In general: A change in cytosolic calcium serves as a functional read-out for many receptors and channels.)

Another test has as its target T2, M2 muscarinic receptor (Homo sapiens, UniProt P08172).
T2 construct: expressed in transfected cells; host or cells: CHO (M2-CHO)
T2 sequence (P08172 1-466): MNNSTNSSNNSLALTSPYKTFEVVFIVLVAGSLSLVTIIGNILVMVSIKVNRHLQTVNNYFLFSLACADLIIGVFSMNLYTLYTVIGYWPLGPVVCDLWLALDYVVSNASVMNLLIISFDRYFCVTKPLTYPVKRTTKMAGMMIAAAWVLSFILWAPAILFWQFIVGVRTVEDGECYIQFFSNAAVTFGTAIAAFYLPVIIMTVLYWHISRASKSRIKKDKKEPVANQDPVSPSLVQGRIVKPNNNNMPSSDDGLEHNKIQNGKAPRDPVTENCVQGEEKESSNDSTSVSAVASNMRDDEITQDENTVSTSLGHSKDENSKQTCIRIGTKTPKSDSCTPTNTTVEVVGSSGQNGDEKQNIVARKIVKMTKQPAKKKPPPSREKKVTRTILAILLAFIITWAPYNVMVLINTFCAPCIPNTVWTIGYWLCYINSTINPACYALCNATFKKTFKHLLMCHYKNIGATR
Put plainly: Functional mobilization of intracellular calcium (FLIPR), M2-CHO cells. The conditions noted are these: for Emax: 100% efficacy = maximum response obtained with the Carbachol control; for M2 Activity: M2-CHO cells, calcium mobilization (FLIPR). The essentials:
as §1

Another test concerns the target T3, M3 muscarinic receptor (Homo sapiens, UniProt P20309).
T3 construct: expressed in transfected cells; host or cells: CHO (M3-CHO)
Put plainly: Functional mobilization of intracellular calcium (FLIPR), M3-CHO cells. The conditions noted are these: for Emax: 100% efficacy = maximum response obtained with the Carbachol control; for M3 Activity: M3-CHO cells, calcium mobilization (FLIPR). In short, it runs like this:
as §1

The target in a further test is T4, M4 muscarinic receptor (Homo sapiens, UniProt P08173).
T4 construct: expressed in transfected cells; host or cells: CHO (M4-CHO)
T4 sequence (P08173 1-479): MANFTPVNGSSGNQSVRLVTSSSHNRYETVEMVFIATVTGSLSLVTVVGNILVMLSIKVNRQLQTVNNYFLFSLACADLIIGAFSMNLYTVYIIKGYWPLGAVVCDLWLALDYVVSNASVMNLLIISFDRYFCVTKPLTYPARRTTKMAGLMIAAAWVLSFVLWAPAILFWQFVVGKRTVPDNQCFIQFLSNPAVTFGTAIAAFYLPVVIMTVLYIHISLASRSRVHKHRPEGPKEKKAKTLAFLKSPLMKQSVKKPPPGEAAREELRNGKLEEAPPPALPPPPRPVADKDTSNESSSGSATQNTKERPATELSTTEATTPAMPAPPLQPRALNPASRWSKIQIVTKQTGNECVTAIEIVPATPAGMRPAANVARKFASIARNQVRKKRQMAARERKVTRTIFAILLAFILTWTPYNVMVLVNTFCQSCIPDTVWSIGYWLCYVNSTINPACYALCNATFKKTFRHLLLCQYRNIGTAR
Put plainly: Functional mobilization of intracellular calcium (FLIPR), M4-CHO cells. The conditions noted are these: for Emax: 100% efficacy = maximum response obtained with the Carbachol control; for M4 Activity: M4-CHO cells, calcium mobilization (FLIPR). In short, it runs like this: as §1

Some results are limits rather than exact numbers.

T3 sequence (P20309 whole entry): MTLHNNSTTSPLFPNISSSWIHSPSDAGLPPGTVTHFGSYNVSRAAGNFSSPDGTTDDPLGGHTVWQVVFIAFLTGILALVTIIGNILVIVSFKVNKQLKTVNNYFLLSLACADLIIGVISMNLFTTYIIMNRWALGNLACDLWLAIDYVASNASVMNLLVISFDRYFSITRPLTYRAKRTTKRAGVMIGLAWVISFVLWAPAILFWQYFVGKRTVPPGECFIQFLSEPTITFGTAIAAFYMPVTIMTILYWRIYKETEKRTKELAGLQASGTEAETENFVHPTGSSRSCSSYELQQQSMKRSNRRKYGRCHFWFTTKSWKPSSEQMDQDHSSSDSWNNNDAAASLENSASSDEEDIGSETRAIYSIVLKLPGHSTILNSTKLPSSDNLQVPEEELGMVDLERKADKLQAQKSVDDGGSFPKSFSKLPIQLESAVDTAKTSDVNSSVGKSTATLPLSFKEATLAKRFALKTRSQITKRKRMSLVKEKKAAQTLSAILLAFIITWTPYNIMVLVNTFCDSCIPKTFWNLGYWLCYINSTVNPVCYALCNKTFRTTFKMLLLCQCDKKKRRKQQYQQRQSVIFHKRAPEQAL

Turning to `CCOC(=O)N1CCC(N2CCC(c3cc(F)ccc3OC)CC2)CC1` [Compound 106], on M1 muscarinic receptor, the Emax (as a rule, the maximal effect, on the per cent scale that the assay sets) lay in the range of 25 to 100% and the “M1 Activity” value is given as “+++ (activity was measured to be less than 1.0 μM)”. Moreover, at M2 muscarinic receptor, the Emax was in the range of 25 to 100% and the “M2 Activity” value is “+++ (activity was measured to be less than 1.0 μM)”. Besides, at M3 muscarinic receptor, the Emax was less than 25% and the “M3 Activity” value was “+++ (activity was measured to be less than 1.0 μM)”. In addition, at M4 muscarinic receptor, the Emax lay within 25 to 100% and the “M4 Activity” value is reported as “+++ (activity was measured to be less than 1.0 μM)”.

With `CCOC(=O)N1CCC(CN2CCC(OC)(c3cc(Cl)ccc3OC)CC2)CC1` [Compound 108], at M1 muscarinic receptor, the Emax fell in the range of 25 to 100% and the “M1 Activity” value is given as “+++ (activity was measured to be less than 1.0 μM)”. For the same compound, on M2 muscarinic receptor, the Emax was less than 25% and the “M2 Activity” value is reported as “++ (activity was measured to be from 1.0 μM to 5.0 μM)”. At M3 muscarinic receptor, the Emax is less than 25% and the “M3 Activity” value was “+ (activity was measured to be greater than 5.0 μM)”. On M4 muscarinic receptor, the Emax lay in the range of 25 to 100% and the “M4 Activity” value is “+++ (activity was measured to be less than 1.0 μM)”.

Regarding `COc1ccc(C(=O)C(C)(C)C)cc1C1CCN([C@H]2C[C@H]3CC[C@H]2C3)CC1` [Compound 109], on M1 muscarinic receptor, the Emax was 25 to 100% and the “M1 Activity” value was “++ (activity was measured to be from 1.0 μM to 5.0 μM)”. Besides, at M2 muscarinic receptor, the maximal response (Emax) was less than 25% and the “M2 Activity” value is recorded as “+ (activity was measured to be greater than 5.0 μM)”. In addition, on M3 muscarinic receptor, the maximal effect (Emax) is less than 25% and the “M3 Activity” value is given as “+ (activity was measured to be greater than 5.0 μM)”. In addition, at M4 muscarinic receptor, the Emax lay within 25 to 100% and the “M4 Activity” value is reported as “+ (activity was measured to be greater than 5.0 μM)”.

For `c1ccc(-c2ccccc2C2CCN([C@H]3C[C@H]4CC[C@H]3C4)CC2)cc1` [Compound 110], on M1 muscarinic receptor, the Emax was less than 25% and the “M1 Activity” value is listed as “+ (activity was measured to be greater than 5.0 μM)”. For the same compound, on M2 muscarinic receptor, the Emax is less than 25% and the “M2 Activity” value is “+ (activity was measured to be greater than 5.0 μM)”. On M3 muscarinic receptor, the Emax was less than 25% and the “M3 Activity” value was “+ (activity was measured to be greater than 5.0 μM)”. Further, on M4 muscarinic receptor, the Emax lay in the range of 25 to 100% and the “M4 Activity” value is “++ (activity was measured to be from 1.0 μM to 5.0 μM)”.

Take `COCCOc1ccccc1C1CCN([C@H]2C[C@H]3CC[C@H]2C3)CC1` [Compound 111]: on M1 muscarinic receptor, the Emax lay within 25 to 100% and the “M1 Activity” value is reported as “++ (activity was measured to be from 1.0 μM to 5.0 μM)”. In addition, at M2 muscarinic receptor, the Emax was 25 to 100% and the “M2 Activity” value was “+ (activity was measured to be greater than 5.0 μM)”. Besides, on M3 muscarinic receptor, the Emax is less than 25% and the “M3 Activity” value is given as “+ (activity was measured to be greater than 5.0 μM)”. On M4 muscarinic receptor, the maximum response (Emax) was in the range of 25 to 100% and the “M4 Activity” value is “+++ (activity was measured to be less than 1.0 μM)”.

In the case of `COc1ccccc1C1CCN(C2CC3CC(C)CC(C3)C2)CC1` (stereo not drawn) [Compound 112], on M1 muscarinic receptor, the Emax was less than 25% and the “M1 Activity” value is “+ (activity was measured to be greater than 5.0 μM)”. On M2 muscarinic receptor, the Emax was less than 25% and the “M2 Activity” value is reported as “+ (activity was measured to be greater than 5.0 μM)”. For the same compound, at M3 muscarinic receptor, the Emax was less than 25% and the “M3 Activity” value is “+ (activity was measured to be greater than 5.0 μM)”. Moreover, at M4 muscarinic receptor, the Emax lay within 25 to 100% and the “M4 Activity” value is on record as “+ (activity was measured to be greater than 5.0 μM)”.

`COc1ccccc1C1CCN(C2CCCCC2)CC1` [Compound 113]: on M1 muscarinic receptor, the Emax was in the range of 25 to 100% and the “M1 Activity” value is “++ (activity was measured to be from 1.0 μM to 5.0 μM)”. On M2 muscarinic receptor, the Emax is less than 25% and the “M2 Activity” value is given as “+ (activity was measured to be greater than 5.0 μM)”. For the same compound, on M3 muscarinic receptor, the Emax was less than 25% and the “M3 Activity” value is on record as “+ (activity was measured to be greater than 5.0 μM)”. Besides, at M4 muscarinic receptor, the Emax was 25 to 100% and the “M4 Activity” value is “+++ (activity was measured to be less than 1.0 μM)”.

As for `c1ccc(COc2ccccc2C2CCN([C@H]3C[C@H]4CC[C@H]3C4)CC2)cc1` [Compound 114], at M1 muscarinic receptor, the Emax is less than 25% and the “M1 Activity” value is recorded as “+ (activity was measured to be greater than 5.0 μM)”. Moreover, on M2 muscarinic receptor, the Emax is less than 25% and the “M2 Activity” value was “+ (activity was measured to be greater than 5.0 μM)”. At M3 muscarinic receptor, the Emax was less than 25% and the “M3 Activity” value was “+ (activity was measured to be greater than 5.0 μM)”. Further, at M4 muscarinic receptor, the Emax was in the range of 25 to 100% and the “M4 Activity” value is “++ (activity was measured to be from 1.0 μM to 5.0 μM)”.

For `COc1ccc(Cl)cc1C1CCN(C2CCC(F)(F)CC2)CC1` [Compound 115], on M1 muscarinic receptor, the maximal response (Emax) lay in the range of 25 to 100% and the “M1 Activity” value was “+ (activity was measured to be greater than 5.0 μM)”. On M2 muscarinic receptor, the Emax is less than 25% and the “M2 Activity” value is given as “+ (activity was measured to be greater than 5.0 μM)”. In addition, at M3 muscarinic receptor, the Emax was less than 25% and the “M3 Activity” value is recorded as “+ (activity was measured to be greater than 5.0 μM)”. For the same compound, on M4 muscarinic receptor, the Emax was 25 to 100% and the “M4 Activity” value was “++ (activity was measured to be from 1.0 μM to 5.0 μM)”.

As for `COc1cccc(-c2ccccc2C2CCN([C@H]3C[C@H]4CC[C@H]3C4)CC2)c1` [Compound 116], at M1 muscarinic receptor, the Emax was 25 to 100% and the “M1 Activity” value was “+ (activity was measured to be greater than 5.0 μM)”. At M2 muscarinic receptor, the Emax was less than 25% and the “M2 Activity” value is on record as “+ (activity was measured to be greater than 5.0 μM)”. For the same compound, at M3 muscarinic receptor, the maximal response (Emax) is less than 25% and the “M3 Activity” value is “+ (activity was measured to be greater than 5.0 μM)”. Further, at M4 muscarinic receptor, the Emax was in the range of 25 to 100% and the “M4 Activity” value is listed as “++ (activity was measured to be from 1.0 μM to 5.0 μM)”.

For the compound `COc1ccccc1[C@H]1CCN([C@@H]2C[C@H]3CC[C@H]2C3)C[C@@H]1O` [Compound 117], at M1 muscarinic receptor, the Emax was less than 25% and the “M1 Activity” value is given as “+ (activity was measured to be greater than 5.0 μM)”. Further, at M2 muscarinic receptor, the Emax was less than 25% and the “M2 Activity” value is “+ (activity was measured to be greater than 5.0 μM)”. For the same compound, on M3 muscarinic receptor, the Emax is less than 25% and the “M3 Activity” value is “+ (activity was measured to be greater than 5.0 μM)”. Further, on M4 muscarinic receptor, the Emax lay within 25 to 100% and the “M4 Activity” value is given as “+ (activity was measured to be greater than 5.0 μM)”.

For `CCOC(=O)N1C2CCC1CC(N1CCC(OC)(c3cc(F)ccc3OC)CC1)C2` (stereo not drawn) [Compound 118], on M1 muscarinic receptor, the Emax was in the range of 25 to 100% and the “M1 Activity” value is “+++ (activity was measured to be less than 1.0 μM)”. Further, at M2 muscarinic receptor, the Emax is less than 25% and the “M2 Activity” value is listed as “+ (activity was measured to be greater than 5.0 μM)”. On M3 muscarinic receptor, the Emax was less than 25% and the “M3 Activity” value is on record as “+ (activity was measured to be greater than 5.0 μM)”. For the same compound, on M4 muscarinic receptor, the Emax is 25 to 100% and the “M4 Activity” value is listed as “+++ (activity was measured to be less than 1.0 μM)”.

The values above are taken from patent US7880007B2, “Bicyclic substituted phenyl piperidine modulators of muscarinic receptors” (Vertex Pharmaceuticals Incorporated, priority 2004, dated 2011).
